Test results as given in patent US9133228B2, “Guanidinyl-substituted polyamides useful for treating human papilloma virus” (Nanovir, LLC, priority 2011, dated 2015).

Tests used:
HPV16 = assay: Inhibition of viral replication in cells that maintain HPV16 DNA, viral DNA quantified by real-time PCR; type: cell-based, Human papilloma virus
Description: (§1) Table 1a lists a number of exemplary polyamides synthesized in accordance with the present invention. The HPLC/MW values given in Table 1b were obtained using low resolution high pressure liquid chromatography/mass spectrometry (LR HPLC/MS), which provides moderate precision masses of single isotopomers rather than average molecular weights or exact masses. Table 2 presents a summary of measured IC50 values of certain of these polyamides against HPV16, HPV18 and HPV31. The IC50 is the concentration of compound required for 50% inhibition of viral replication in vitro. The polyamides were tested in cells that maintain HPV16, HPV18 or HPV31 DNA. Cells maintaining the selected HPV were cultured for 72 hours in the presence of the polyamide. Viral DNA was then quantified using real-time PCR and compared to vehicle (DMSO)-treated control cultures. […] Table 3 presents a summary of measured IC50 and IC90 values of certain of these polyamides against HPV16, HPV18 and HPV31.

HPV18 = assay: Inhibition of viral replication in cells that maintain HPV18 DNA, viral DNA quantified by real-time PCR; type: cell-based, Human papilloma virus
Description: as §1

HPV31 = assay: Inhibition of viral replication in cells that maintain HPV31 DNA, viral DNA quantified by real-time PCR; type: cell-based, Human papilloma virus
Description: as §1

[1] = tested on: sequence of HPV16 (365 bp: 7662-122); assay: DNase I footprinting experiment; type: binding, Human papilloma virus; settings: polyamide 2 nM and 5 nM; DNA 200 pM; DMSO and CHAPS; 37° C. for 5-6 hrs
Procedure: FIG. 9 illustrates a footprinting experiment of NV1087 on a sequence of HPV16 (365 bp: 7662-122). All reactions were carried out in presence of DMSO and CHAPS, and the final DNA concentration was 200 pM. The polyamide concentration varied (2 nM and 5 nM). Reactions were incubated with polyamide at 37° C. for 5-6 hrs.

[2] = cells maintaining HPV16 cultured 72 hours with polyamide, vs DMSO control, highest dose tested 10 μM
[3] = cells maintaining HPV18 cultured 72 hours with polyamide, vs DMSO control, highest dose tested 10 μM
[4] = cells maintaining HPV31 cultured 72 hours with polyamide, vs DMSO control, highest dose tested 10 μM

Question: What does the source list for `CN(C)CCCNC(=O)CCNC(=O)c1cc(NC(=O)c2cc(NC(=O)c3cc(NC(=O)CCNC(=O)c4cc(NC(=O)c5cc(NC(=O)c6cc(NC(=O)CCNC(=O)c7cc(NC(=O)c8cc(NC(=O)CCCNC(=O)c9cc(NC(=O)c%10cc(NC(=O)CCNC(=O)c%11nc(NC(=O)c%12cc(NC(=O)c%13cc(NC(=O)CCNC(=O)c%14cc(NC(=O)c%15cc(N=C(N(C)C)N(C)C)cn%15C)cn%14C)cn%13C)cn%12C)cn%11C)cn%10C)cn9C)cn8C)cn7C)cn6C)cn5C)cn4C)cn3C)cn2C)cn1C` [NV1086, TMG-PyPyβPyPyImβPyPy-γ-PyPyβPyPyPyβPyPyPyβ-Dp•3TFA]?
Answer: IC50 (HPV16; [2]): 43 nM; IC50 (HPV18; [3]): 62 nM; IC50 (HPV31; [4]): 16 nM

Question: What does the source list for `CN(CCCN)CCCNC(=O)CCNC(=O)c1cc(NC(=O)CCNC(=O)c2cc(NC(=O)c3cc(NC(=O)c4cc(NC(=O)CCNC(=O)c5cc(NC(=O)c6cc(NC(=O)CCNC(=O)c7cc(NC(=O)CCCNC(=O)c8nc(NC(=O)c9cc(NC(=O)CCNC(=O)c%10cc(NC(=O)c%11cc(NC(=O)CCNC(=O)c%12cc(NC(=O)c%13cc(NC(=O)c%14cc(N=C(N(C)C)N(C)C)cn%14C)cn%13C)cn%12C)cn%11C)cn%10C)cn9C)cn8C)cn7C)cn6C)cn5C)cn4C)cn3C)cn2C)cn1C.O=C(O)C(F)(F)F.O=C(O)C(F)(F)F.O=C(O)C(F)(F)F.O=C(O)C(F)(F)F` [NV1087, TMG-PyPyPyβPyPyβPyIm-γ-PyβPyPyβPyPyPyβPyβ-Ta•4TFA]?
Answer: IC50 (HPV16; [2]): 31 nM; IC50 (HPV18; [3]): 24 nM; IC50 (HPV31; [4]): 16 nM; protection of DNA from digestion by DNase I (decrease in peak heights) [1]: protects the DNA from digestion by DNase I

Question: What does the source list for `CN(C)CCCNC(=O)CCNC(=O)c1cc(NC(=O)CCNC(=O)c2cc(NC(=O)c3cc(NC(=O)c4cc(NC(=O)CCNC(=O)c5cc(NC(=O)c6cc(NC(=O)CCNC(=O)c7cc(NC(=O)CCCNC(=O)c8nc(NC(=O)c9cc(NC(=O)CCNC(=O)c%10cc(NC(=O)c%11cc(NC(=O)CCNC(=O)c%12cc(NC(=O)c%13cc(NC(=O)c%14cc(N=C(N(C)C)N(C)C)cn%14C)cn%13C)cn%12C)cn%11C)cn%10C)cn9C)cn8C)cn7C)cn6C)cn5C)cn4C)cn3C)cn2C)cn1C` [NV1088, TMG-PyPyPyβPyPyβPyIm-γ-PyβPyPyβPyPyPyβPyβ-Dp•3TFA]?
Answer: IC50 (HPV16; [2]): 20 nM; IC50 (HPV18; [3]): 35 nM; IC50 (HPV31; [4]): 14 nM

Question: What does the source list for `CN(C)CCCNC(=O)CCNC(=O)c1cc(NC(=O)CCNC(=O)c2cc(NC(=O)c3cc(NC(=O)c4cc(NC(=O)CCNC(=O)c5cc(NC(=O)c6cc(NC(=O)CCNC(=O)c7cc(NC(=O)CCCNC(=O)c8nc(NC(=O)c9cc(NC(=O)CCNC(=O)c%10cc(NC(=O)c%11cc(NC(=O)CCNC(=O)c%12cc(NC(=O)c%13cc(N=C(N(C)C)N(C)C)cn%13C)cn%12C)cn%11C)cn%10C)cn9C)cn8C)cn7C)cn6C)cn5C)cn4C)cn3C)cn2C)cn1C` [NV1089, TMG-PyPyβPyPyβPyIm-γ-PyβPyPyβPyPyPyβPyβ-Dp•3TFA]?
Answer: IC50 (HPV16; [2]): 68 nM; IC50 (HPV18; [3]): 68 nM; IC50 (HPV31; [4]): 46 nM

Question: `CN(CCCN)CCCNC(=O)CCNC(=O)c1cc(NC(=O)CCNC(=O)c2cc(NC(=O)c3cc(NC(=O)c4cc(NC(=O)CCNC(=O)c5cc(NC(=O)c6cc(NC(=O)CCNC(=O)c7cc(NC(=O)CCCNC(=O)c8nc(NC(=O)c9cc(NC(=O)CCNC(=O)c%10cc(NC(=O)c%11cc(NC(=O)CCNC(=O)c%12cc(NC(=O)c%13cc(N=C(N(C)C)N(C)C)cn%13C)cn%12C)cn%11C)cn%10C)cn9C)cn8C)cn7C)cn6C)cn5C)cn4C)cn3C)cn2C)cn1C` [NV1090, TMG-PyPyβPyPyβPyIm-γ-PyβPyPyβPyPyPyβPyβ-Ta•4TFA] was tested. Which IC50 (HPV16; [2]) did it give?
Answer: 51 nM

Question: And the IC50 (HPV18; [3])?
Answer: 53 nM

Question: What about the IC50 (HPV31; [4]) of the same molecule?
Answer: 22 nM

Question: Which results are given for `CN(CCCN)CCCNC(=O)CCNC(=O)c1cc(NC(=O)c2cc(NC(=O)c3cc(NC(=O)CCNC(=O)c4cc(NC(=O)c5cc(NC(=O)c6cc(NC(=O)CCCNC(=O)c7cc(NC(=O)c8cc(NC(=O)CCNC(=O)c9nc(NC(=O)c%10cc(N=C(N(C)C)N(C)C)cn%10C)cn9C)cn8C)cn7C)cn6C)cn5C)cn4C)cn3C)cn2C)cn1C` [NV1094, TMG-PyImβPyPy-γ-PyPyPyβPyPyPyβ-Ta•4TFA]?
Answer: IC50 (HPV16; [2]): > 10000 nM; IC50 (HPV18; [3]): > 10000 nM; IC50 (HPV31; [4]): > 10000 nM

Question: How did the IC50 (HPV16; [2]) turn out when `CN(CCCN)CCCNC(=O)CCNC(=O)c1cc(NC(=O)CCNC(=O)c2cc(NC(=O)c3cc(NC(=O)c4cc(NC(=O)CCNC(=O)c5cc(NC(=O)c6cc(NC(=O)CCNC(=O)c7cc(NC(=O)[C@H](N)CCNC(=O)c8nc(NC(=O)c9cc(NC(=O)CCNC(=O)c%10cc(NC(=O)c%11cc(NC(=O)CCNC(=O)c%12cc(NC(=O)c%13cc(N=C(N(C)C)N(C)C)cn%13C)cn%12C)cn%11C)cn%10C)cn9C)cn8C)cn7C)cn6C)cn5C)cn4C)cn3C)cn2C)cn1C` [NV1096, TMG-PyPyβPyPyβPyIm-γNH2-PyβPyPyβPyPyPyβPβ-Ta•5TFA] was run?
Answer: 24 nM

Question: What about the IC50 (HPV18; [3]) of the same molecule?
Answer: 36 nM

Question: And the IC50 (HPV31; [4])?
Answer: 35 nM

Question: How did the IC50 (HPV16; Table 3, 72 hours) turn out when `CN(CCCN)CCCNC(=O)CCNC(=O)c1cc(NC(=O)CCNC(=O)c2cc(NC(=O)c3cc(NC(=O)c4cc(NC(=O)CCNC(=O)c5cc(NC(=O)c6cc(NC(=O)c7cc(NC(=O)CCCNC(=O)c8cc(NC(=O)CCNC(=O)c9cc(NC(=O)c%10cc(NC(=O)CCNC(=O)c%11cc(NC(=O)c%12cc(N=C(N(C)C)N(C)C)cn%12C)cn%11C)cn%10C)cn9C)cn8C)cn7C)cn6C)cn5C)cn4C)cn3C)cn2C)cn1C` [NV1097, TMG-PyPyβPyPyβPy-γ-PyPyPyβPyPyPyβPyβ-Ta•3TFA] was run?
Answer: 70 nM

Question: What about the IC90 (HPV16; Table 3, 72 hours) of the same molecule?
Answer: 1410 nM

Question: What about the IC50 (HPV16; [2]) of the same molecule?
Answer: 70 nM

Question: And the IC50 (HPV18; Table 3, 72 hours)?
Answer: 257 nM

Question: What about the IC90 (HPV18; Table 3, 72 hours) of the same molecule?
Answer: > 10 µM

Question: What about the IC50 (HPV18; [3]) of the same molecule?
Answer: 257 nM

Question: And the IC50 (HPV31; Table 3, 72 hours)?
Answer: 40 nM

Question: And the IC90 (HPV31; Table 3, 72 hours)?
Answer: 10 µM

Question: What about the IC50 (HPV31; [4]) of the same molecule?
Answer: 40 nM

Question: Which IC50 (HPV16; Table 3, 72 hours) does the source give for `CN(CCCN)CCCNC(=O)CCNC(=O)c1cc(NC(=O)CCNC(=O)c2cc(NC(=O)c3cc(NC(=O)c4cc(NC(=O)CCNC(=O)c5cc(NC(=O)c6cc(NC(=O)c7cc(NC(=O)CCCNC(=O)c8cc(NC(=O)CCNC(=O)c9cc(NC(=O)c%10cc(NC(=O)CCNC(=O)c%11cc(NC(=O)c%12cc(NC(=O)c%13cc(N=C(N(C)C)N(C)C)cn%13C)cn%12C)cn%11C)cn%10C)cn9C)cn8C)cn7C)cn6C)cn5C)cn4C)cn3C)cn2C)cn1C` [NV1098, TMG-PyPyPyβPyPyβPy-γ-PyPyPyβPyPyPyβPyβ-Ta•3TFA] here?
Answer: 11 nM

Question: And the IC90 (HPV16; Table 3, 72 hours)?
Answer: 1360 nM

Question: What about the IC50 (HPV16; [2]) of the same molecule?
Answer: 11 nM

Question: And the IC50 (HPV18; Table 3, 72 hours)?
Answer: 17 nM

Question: And the IC90 (HPV18; Table 3, 72 hours)?
Answer: > 10 µM

Question: And the IC50 (HPV18; [3])?
Answer: 17 nM

Question: And the IC50 (HPV31; Table 3, 72 hours)?
Answer: 24 nM

Question: What about the IC90 (HPV31; Table 3, 72 hours) of the same molecule?
Answer: 0.549 µM

Question: What about the IC50 (HPV31; [4]) of the same molecule?
Answer: 24 nM

Question: Which results are given for “TMG-PyPyβPyPyβ-γNH2-PyPyPyβPyPyPyβPyβ-Ta•4TFA [NV1095]”?
Answer: IC50 (HPV16; [2]): 204 nM; IC50 (HPV18; [3]): > 10000 nM; IC50 (HPV31; [4]): 49 nM
